# From US12446584B2, “Termiticide composition and methods for treating termites” (ADAMA MAKHTESHIM LTD., priority 2013, dated 2025)
# Where two headings read alike, the source gives them in different places.
# Assays:
# Type in all cases: in vivo
# [1] = tested on: Eastern subterranean termites (Reticulitermes flavipes); test: Thin plate bioassay; settings: 0.05% solution
# Procedure: (§1) A laboratory study was conducted, using recently collected R. flavipes and C. formosanus. Thin plate bioassays were assembled using 0.6 cm glass and 0.6 cm clear Lexan. A sheet of 20.3×66 cm glass was used for the bottom. Two pieces of 2.5×61 cm glass were laid along the long edges, and two pieces of […]. Each arena had 450 g of screened sand evenly applied, and moistened with deionized water to help hold it in place during construction of the arenas. Fisher brand tongue depressors, cut in half, were used as a food source for the termites, and placed at one end of the arena. Prior to adding the Lexan top sheets, 0.6 cm holes were drilled at one end, and three 0.6 cm treatment apertures were drilled equally spaced apart at the center line. One 8 cm Petri dish with a 0.6 cm hole drilled in the bottom was lined up with the hole at the end of the top sheet, and glued down. Glue was allowed to dry for 72 hours. Large binder clips were used to hold the arena together.
# (§2) Termiticide solutions were prepared as follows: Fipronil 0.017%; Fipronil 0.03%; Imidacloprid 0.05%; Imi-Fip 0.067% (Imidacloprid 0.05%, Fipronil 0.017%); and Untreated Control (water only). Ten ml of each finished solution of termiticide were applied to each arena: each of the three treatment apertures received 3.3 ml of termiticide. The treatments were allowed to dry for 24 hours, and the treatment apertures were covered with a 2.5×7.5 cm microscope slide. In each Petri dish, 500 worker and 15 soldier termites were added, using either R. flavipes or C. formosanus. Each treatment was replicated four times. Data regarding distance tunneled and mortality were collected daily for eight days. Data was analyzed using Analysis of Variance (ANOVA) and means were separated by Tukey's HSD (Honest Significant Difference test (IBM SPSS v 19).
# [2] = tested on: Formosan subterranean termites (Coptotermes formosanus); test: Thin plate bioassay; settings: 0.05% solution
# Procedure: as §1, §2
# [3] = tested on: Eastern Subterranean Reticulitermes flavipes termites; test: Transfer effects among nestmates (donor/recipient Petri dish arenas); settings: donors treated with 50 ppm; for mortality at 50 ppm: Reticulitermes flavipes
# Procedure: (§3) The purpose of this study was to determine whether there is transference of […] among nestmates of subterranean termites. Arenas for this study consisted of a 15 cm Petri dish. […] Donor and untreated marked control termites were marked using RustOleum® Marking Paint, using methodology described by Keefer et al. 2012.
# (§4) Two untreated soldier termites for each species were added to each arena to simulate colony dynamics. Post-treatment observations for mortality were made at 4 h and then daily through day 7.
# [4] = tested on: Formosan Coptotermes formosanus termites; test: as above; settings: donors treated with 50 ppm; for mortality at 50 ppm: Coptotermes formosanus
# Procedure: as §3, §4
# [5] = 4 h, by treatment (all ratios), 4 h, read-out: Mean % mortality of donors and recipients
# [6] = 4 h, donor:recipient ratio 1:19, 4 h, read-out: Mean total % mortality of donors and recipients
# [7] = 4 h, donor:recipient ratio 5:15, 4 h, read-out: Mean total % mortality of donors and recipients
# [8] = 4 h, donor:recipient ratio 10:10, 4 h, read-out: Mean total % mortality of donors and recipients
# [9] = 4 h, donor:recipient ratio 15:5, 4 h, read-out: Mean total % mortality of donors and recipients
# [10] = 24 h, by treatment (all ratios), 1 d, read-out: Mean % mortality of donors and recipients
# [11] = 24 h, donor:recipient ratio 1:19, 1 d, read-out: Mean total % mortality of donors and recipients
# [12] = 24 h, donor:recipient ratio 5:15, 1 d, read-out: Mean total % mortality of donors and recipients
# [13] = 24 h, donor:recipient ratio 10:10, 1 d, read-out: Mean total % mortality of donors and recipients
# [14] = 24 h, donor:recipient ratio 15:5, 1 d, read-out: Mean total % mortality of donors and recipients
# [15] = 48 h, by treatment (all ratios), 2 d, read-out: Mean % mortality of donors and recipients
# [16] = 48 h, donor:recipient ratio 1:19, 2 d, read-out: Mean total % mortality of donors and recipients
# [17] = 48 h, donor:recipient ratio 5:15, 2 d, read-out: Mean total % mortality of donors and recipients
# [18] = 48 h, donor:recipient ratio 10:10, 2 d, read-out: Mean total % mortality of donors and recipients
# [19] = 48 h, donor:recipient ratio 15:5, 2 d, read-out: Mean total % mortality of donors and recipients
# [20] = 72 h, by treatment (all ratios), 3 d, read-out: Mean % mortality of donors and recipients
# [21] = 72 h, donor:recipient ratio 1:19, 3 d, read-out: Mean total % mortality of donors and recipients
# [22] = 72 h, donor:recipient ratio 5:15, 3 d, read-out: Mean total % mortality of donors and recipients
# [23] = 72 h, donor:recipient ratio 10:10, 3 d, read-out: Mean total % mortality of donors and recipients
# [24] = 72 h, donor:recipient ratio 15:5, 3 d, read-out: Mean total % mortality of donors and recipients
# [25] = 96 h, by treatment (all ratios), 4 d, read-out: Mean % mortality of donors and recipients
# [26] = 96 h, donor:recipient ratio 1:19, 4 d, read-out: Mean total % mortality of donors and recipients
# [27] = 96 h, donor:recipient ratio 5:15, 4 d, read-out: Mean total % mortality of donors and recipients
# [28] = 96 h, donor:recipient ratio 10:10, 4 d, read-out: Mean total % mortality of donors and recipients
# [29] = 96 h, donor:recipient ratio 15:5, 4 d, read-out: Mean total % mortality of donors and recipients
# [30] = 120 h, by treatment (all ratios), 5 d, read-out: Mean % mortality of donors and recipients
# [31] = 120 h, donor:recipient ratio 1:19, 5 d, read-out: Mean total % mortality of donors and recipients
# [32] = 120 h, donor:recipient ratio 5:15, 5 d, read-out: Mean total % mortality of donors and recipients
# [33] = 120 h, donor:recipient ratio 10:10, 5 d, read-out: Mean total % mortality of donors and recipients
# [34] = 120 h, donor:recipient ratio 15:5, 5 d, read-out: Mean total % mortality of donors and recipients
# [35] = 144 h, by treatment (all ratios), 6 d, read-out: Mean % mortality of donors and recipients
# [36] = 144 h, donor:recipient ratio 1:19, 6 d, read-out: Mean total % mortality of donors and recipients
# [37] = 144 h, donor:recipient ratio 5:15, 6 d, read-out: Mean total % mortality of donors and recipients
# [38] = 144 h, donor:recipient ratio 10:10, 6 d, read-out: Mean total % mortality of donors and recipients
# [39] = 144 h, donor:recipient ratio 15:5, 6 d, read-out: Mean total % mortality of donors and recipients
# [40] = 168 h, by treatment (all ratios), 7 d, read-out: Mean % mortality of donors and recipients
# [41] = 168 h, donor:recipient ratio 1:19, 7 d, read-out: Mean total % mortality of donors and recipients
# [42] = 168 h, donor:recipient ratio 5:15, 7 d, read-out: Mean total % mortality of donors and recipients
# [43] = 168 h, donor:recipient ratio 10:10, 7 d, read-out: Mean total % mortality of donors and recipients
# [44] = 168 h, donor:recipient ratio 15:5, 7 d, read-out: Mean total % mortality of donors and recipients
structure (smiles),measurement,setting,value
"O=[N+]([O-])NC1=NCCN1Cc1ccc(Cl)nc1 [Imidacloprid, N-[1-[(6-Chloro-3-pyridyl)methyl]-4,5-dihydroimidazol-2-yl]nitramide]",Mean % mortality,[1]; 1 day post-treatment,6.35 a %
same,Mean % mortality,[1]; 2 days post-treatment,12.00 b %
same,Mean % mortality,[1]; 3 days post-treatment,75.00 a %
same,Mean % mortality,[1]; 4 days post-treatment,80.00 a %
same,Mean % mortality,[1]; 5 days post-treatment,80.00 c %
same,Mean % mortality,[1]; 6 days post-treatment,100.00 a %
same,Mean % mortality,[1]; 7 days post-treatment,100.00 a %
same,Mean % mortality,[1]; 8 days post-treatment,100.00 a %
same,Mean % mortality,[2]; 1 day post-treatment,0.80 a %
same,Mean % mortality,[2]; 2 days post-treatment,5.30 b %
same,Mean % mortality,[2]; 3 days post-treatment,23.25 a %
same,Mean % mortality,[2]; 4 days post-treatment,30.00 a %
same,Mean % mortality,[2]; 5 days post-treatment,55.00 a %
same,Mean % mortality,[2]; 6 days post-treatment,88.75 b %
same,Mean % mortality,[2]; 7 days post-treatment,100.00 a %
same,Mean % mortality,[2]; 8 days post-treatment,100.00a %
same,mortality at 50 ppm,[3]; [5],27%
same,mortality at 50 ppm,[3]; [6],10%
same,mortality at 50 ppm,[3]; [7],21.2%
same,mortality at 50 ppm,[3]; [8],43.8%
same,mortality at 50 ppm,[3]; [9],33.8%
same,mortality at 50 ppm,[3]; [10],64.4%
same,mortality at 50 ppm,[3]; [11],30%
same,mortality at 50 ppm,[3]; [12],51.2%
same,mortality at 50 ppm,[3]; [13],80%
same,mortality at 50 ppm,[3]; [14],96.2%
same,mortality at 50 ppm,[3]; [15],64.4%
same,mortality at 50 ppm,[3]; [16],30%
same,mortality at 50 ppm,[3]; [17],51.2%
same,mortality at 50 ppm,[3]; [18],80%
same,mortality at 50 ppm,[3]; [19],96.2%
same,mortality at 50 ppm,[3]; [20],73.4%
same,mortality at 50 ppm,[3]; [21],33.8%
same,mortality at 50 ppm,[3]; [22],60%
same,mortality at 50 ppm,[3]; [23],100%
same,mortality at 50 ppm,[3]; [24],100%
same,mortality at 50 ppm,[3]; [25],73.4%
same,mortality at 50 ppm,[3]; [26],72.5%
same,mortality at 50 ppm,[3]; [27],71.2%
same,mortality at 50 ppm,[3]; [28],100%
same,mortality at 50 ppm,[3]; [29],100%
same,mortality at 50 ppm,[3]; [30],90.9%
same,mortality at 50 ppm,[3]; [31],76.2%
same,mortality at 50 ppm,[3]; [32],87.5%
same,mortality at 50 ppm,[3]; [33],100%
same,mortality at 50 ppm,[3]; [34],100%
same,mortality at 50 ppm,[3]; [35],98.4%
same,mortality at 50 ppm,[3]; [36],98.8%
same,mortality at 50 ppm,[3]; [37],95%
same,mortality at 50 ppm,[3]; [38],100%
same,mortality at 50 ppm,[3]; [39],100%
same,mortality at 50 ppm,[3]; [40],100%
same,mortality at 50 ppm,[3]; [41],100%
same,mortality at 50 ppm,[3]; [42],100%
same,mortality at 50 ppm,[3]; [43],100%
same,mortality at 50 ppm,[3]; [44],100%
same,Mean % mortality of donors and recipients,"[3]; by treatment (all ratios), 4 h",27.18 a %
same,mortality at 50 ppm,[4]; [5],9%
same,mortality at 50 ppm,[4]; [6],0%
same,mortality at 50 ppm,[4]; [7],3.75%
same,mortality at 50 ppm,[4]; [8],17.5%
same,mortality at 50 ppm,[4]; [9],17.5%
same,mortality at 50 ppm,[4]; [10],32.5%
same,mortality at 50 ppm,[4]; [11],1.25%
same,mortality at 50 ppm,[4]; [12],12.5%
same,mortality at 50 ppm,[4]; [13],85%
same,mortality at 50 ppm,[4]; [14],31.2%
same,mortality at 50 ppm,[4]; [15],52.5%
same,mortality at 50 ppm,[4]; [16],5%
same,mortality at 50 ppm,[4]; [17],22.5%
same,mortality at 50 ppm,[4]; [18],96.2%
same,mortality at 50 ppm,[4]; [19],86.2%
same,mortality at 50 ppm,[4]; [20],67.2%
same,mortality at 50 ppm,[4]; [21],33.8%
same,mortality at 50 ppm,[4]; [22],37.5%
same,mortality at 50 ppm,[4]; [23],100%
same,mortality at 50 ppm,[4]; [24],100%
same,mortality at 50 ppm,[4]; [25],76.2%
same,mortality at 50 ppm,[4]; [26],72.5%
same,mortality at 50 ppm,[4]; [27],55%
same,mortality at 50 ppm,[4]; [28],100%
same,mortality at 50 ppm,[4]; [29],100%
same,mortality at 50 ppm,[4]; [30],87.5%
same,mortality at 50 ppm,[4]; [31],82.5%
same,mortality at 50 ppm,[4]; [32],67.5%
same,mortality at 50 ppm,[4]; [33],100%
same,mortality at 50 ppm,[4]; [34],100%
same,mortality at 50 ppm,[4]; [35],96.2%
same,mortality at 50 ppm,[4]; [36],93.8%
same,mortality at 50 ppm,[4]; [37],91.2%
same,mortality at 50 ppm,[4]; [38],100%
same,mortality at 50 ppm,[4]; [39],100%
same,mortality at 50 ppm,[4]; [40],97%
same,mortality at 50 ppm,[4]; [41],95%
same,mortality at 50 ppm,[4]; [42],96.2%
same,mortality at 50 ppm,[4]; [43],100%
same,mortality at 50 ppm,[4]; [44],100%
same,Mean % mortality of donors and recipients,"[4]; by treatment (all ratios), 4 h",9.68 b %
same,Mean % mortality of donors and recipients,"[4]; by treatment (all ratios), 7 d",97.81 a %
